# Counter-ions that a name gives are not always drawn. Like-named read-outs stand apart in the source and are kept apart here.
# What was measured:
# M. tuberculosis H37Rv [1] = assay: Hypoxic (anaerobic) clonogenic MBC assay, dormant H37Rv; assay type: cell-based; settings: for MBC: Mycobacterium tuberculosis
# [2] = in vivo, po, 600 mg; cited from earlier work
# VERO cells = assay: Cytotoxicity against VERO cells (MTT, 72 hours exposure); assay type: cell-based; settings: for IC50: Chlorocebus sabaeus, Vero, read-out: IC50 in VERO cells
# [3] = test system: Mycobacterium tuberculosis H37Rv; assay: Microplate Alamar Blue Assay (MABA), aerobic; assay type: cell-based
# [4] = Water solubility and stability of aqueous stock solutions; assay type: physicochemical; settings: for solubility in water: hydrochloride salt
# Protocol: Commercially available 4,7-dichloroquinoline (1) first was converted to the 4-fluoro-derivative (2) by refluxing for 6 hours in DMSO with lyophilized potassium fluoride (KF) (1.5 eq) from a 5% aqueous solution.
# HRMS (VG 70-250SE mass spectrometer): Calculated for C16H16ClN5O2 (free amine): m/z 345.0992. […] FAB (VG 70-250SE mass spectrometer). Calculated for C16H17ClN5O2 (M+): m/z 346.
# [5] = Plasma concentration after administration to CD2F1 mice; assay type: in vivo
# Excerpt: (§1) An oral MTD was not determined.
# Toxicity study in rats = assay type: in vivo; settings: i.v. daily 16 mg/kg, female rats
# Toxicity study in dogs = assay type: in vivo; settings: i.v. daily 10.95 mg/kg
# [6] = Toxicity (MTD, adverse effects) in mice; assay type: in vivo
# Excerpt: determination of MTD ([…], MTD) in vivo (C57BL/6 female mice, i.p. administration of single doses, 1 week duration); and
# as §1
# [7] = Stability in human plasma; assay type: in vitro ADME
# [8] = test system: Mycobacterium tuberculosis H37Rv; settings: MABA, 7H12 media, 90% reduction in fluorescence; cited from earlier work
# M. tuberculosis H37Rv [9] = settings: hypoxic MBC assay; cited from earlier work
# [10] = H37RV, present day anti-TB drugs as positive controls, read-out: H37Rv MBC (hypoxic assay)
# [11] = dormant H37Rv cells, ranges depending on the assay (Table 2), read-out: MBC (minimum bactericidal concentration)
# [12] = H37RV, pH 6.7, read-out: H37Rv MBC (hypoxic)
# [13] = H37RV, read-out: MBC (minimum bactericidal concentration)
# [14] = pH 6.7, read-out: % Inh (aerobic)
# [15] = dormant H37Rv cells, ranges depending on the assay (Table 2)
# [16] = present day anti-TB drugs as positive controls
compound,measurement,setting,value
"CO[C@H]1/C=C/O[C@@]2(C)Oc3c(C)c(O)c4c(O)c(c(/C=N/N5CCN(C)CC5)c(O)c4c3C2=O)NC(=O)/C(C)=C\C=C\[C@H](C)[C@H](O)[C@@H](C)[C@@H](O)[C@@H](C)[C@H](OC(C)=O)[C@@H]1C [Rifampin, rifampin]",MBC,M. tuberculosis H37Rv [1]; [10],2.5 µg/mL
same,MBC,M. tuberculosis H37Rv [1]; [11],2.5 µg/mL
same,Cmax,[2],8000 ng/mL
"O=[N+]([O-])c1nccn1CCCCNc1ccnc2cc(Cl)ccc12 [NLCQ-2, 4-[4-(2-nitro-1-imidazolyl)-butylamino]-7-chloroquinoline hydrochloride]",MBC,M. tuberculosis H37Rv [1]; [12],6.25 µg/mL
same,MBC,M. tuberculosis H37Rv [1]; [13],4.9 to 9.8 µg/mL
same,IC50,VERO cells,> 640 µg/mL
same,IC50 in VERO cells,"VERO cells; toxicity, hydrochloride",>640 µg/mL
same,inhibition at 6.25 µg/mL,[3]; [14],0%
same,hydrophilicity (aqueous solubility) compared with PA-824,[4],more hydrophilic
same,solubility in water,[4],soluble in water
"CN(C)c1ccc(O)c2c1C[C@H]1C[C@H]3[C@H](N(C)C)C(O)=C(C(N)=O)C(=O)[C@@]3(O)C(O)=C1C2=O [Minocyclin, minocyclin]",MBC (minimum bactericidal concentration),M. tuberculosis H37Rv [1]; [15],>156.25 µg/mL
same,MBC (minimum bactericidal concentration),"M. tuberculosis H37Rv [1]; dormant H37Rv cells, ranges depending on the assay (Table 2), listed as minocyclin",> 156.25 µg/mL
same,H37Rv MBC (hypoxic assay),M. tuberculosis H37Rv [1]; [16],156.25 µg/mL
"O=[N+]([O-])c1nccn1CCCNc1ccnc2cc(Cl)ccc12 [NLCQ-1, 4-[3-(2-Nitro-1-imidazolyl)-propylamino]-7-chloroquinoline hydrochloride]",peak plasma concentration,[5]; i.p. injection of 10 mg/kg,8.9 µg/mL
same,bioavailability,"[5]; mouse, plasma, oral administration of 10 mg/kg",29%
same,peak plasma concentration,[5]; oral administration of 10 mg/kg,0.461 µg/mL
same,adverse effects,Toxicity study in rats,no adverse effects
same,adverse effects,Toxicity study in dogs,no adverse effects
same,MTD at 1 week,"[6]; female, C57BL/6, mouse, in vivo, ip, single dose",30 mg/kg
same,adverse effects,"[6]; i.p. 30 mg/kg bolus or 45 mg/kg as 3 fractions of 15 mg/kg every two hours daily, mice",no adverse effects
same,MTD,"[6]; mouse, in vivo, ip, multiple doses",≥ 45 mg/kg
same,MBC,M. tuberculosis H37Rv [1]; [12],3.1 µg/mL
same,MBC,M. tuberculosis H37Rv [1]; [13],3.1 to 18.4 µg/mL
same,stability in human plasma,[7],good stability in human plasma
same,IC50,VERO cells,147 µg/mL
same,inhibition at 6.25 µg/mL,[3]; [14],0%
same,hydrophilicity (aqueous solubility) compared with PA-824,[4],more hydrophilic
same,solubility in water,[4],soluble in water
"[H]/N=C(/N)N[C@H]1[C@H](O)[C@@H](O)[C@H](O[C@@H]2O[C@@H](C)[C@](O)(C=O)[C@H]2O[C@@H]2O[C@@H](CO)[C@H](O)[C@@H](O)[C@@H]2NC)[C@@H](N/C(N)=N\[H])[C@@H]1O [Streptomycin, streptomycin]",MBC,M. tuberculosis H37Rv [1]; [10],12.5 µg/mL
same,MBC,M. tuberculosis H37Rv [1]; [11],> 12.5 µg/mL
same,MBC (minimum bactericidal concentration),M. tuberculosis H37Rv [1]; [15],> 12.5 µg/mL
"NNC(=O)c1ccncc1 [Isoniazid, isoniazid]",MBC,M. tuberculosis H37Rv [1]; [10],> 100 µg/mL
same,MBC,M. tuberculosis H37Rv [1]; [11],> 100 µg/mL
same,MBC (minimum bactericidal concentration),M. tuberculosis H37Rv [1]; [15],> 100 µg/mL
same,expected MIC range (quality control),[8],0.025 to 0.1 µg/mL
capreomycin,MBC (minimum bactericidal concentration),M. tuberculosis H37Rv [1]; [15],37.5 µg/mL
same,H37Rv MBC (hypoxic assay),M. tuberculosis H37Rv [1]; [16],37.5 µg/mL
"Cc1ncc([N+](=O)[O-])n1CCO [Metronidazole, metronidazole]",activity in hypoxic assay,M. tuberculosis H37Rv [9],activity is observed only at very high concentrations
"CC[C@H]1OC(=O)[C@H](C)[C@@H](O[C@H]2C[C@@](C)(OC)[C@@H](O)[C@H](C)O2)[C@H](C)[C@@H](O[C@@H]2O[C@H](C)C[C@H](N(C)C)[C@H]2O)[C@](C)(OC)C[C@@H](C)C(=O)[C@H](C)[C@@H](O)[C@]1(C)O [Clarithromycin, clarithromycin]",MBC,M. tuberculosis H37Rv [1]; [10],> 312 µg/mL
same,MBC,M. tuberculosis H37Rv [1]; [11],> 312 µg/mL
same,MBC (minimum bactericidal concentration),M. tuberculosis H37Rv [1]; [15],> 312.5 µg/mL
Cc1nc(C(F)(F)F)nc(NCCCn2ccnc2[N+](=O)[O-])c1C [CF3PM],MBC,M. tuberculosis H37Rv [1]; [12],7.01 to 25 µg/mL
same,inhibition at 6.25 µg/mL,"[3]; aerobic conditions, 6.25 μg/mL, pH 6.7-6.8, read-out: % Inh (aerobic)",23%
O=[N+]([O-])c1cn2c(n1)OC[C@@H](OCc1ccc(OC(F)(F)F)cc1)C2 [PA-824],MBC,M. tuberculosis H37Rv [1]; [13],6.4 to 12.8 µg/mL
same,IC50,VERO cells; toxicity,> 640 µg/mL
same,"SI, selectivity index (IC50/MBC)",VERO cells; VERO IC50 / MBC dormant H37Rv,>50-100
same,IC50 in VERO cells,VERO cells; toxicity,>640 µg/mL
